{"source": "patent US7727740B1", "about": "“Methods for determining whether a chemical agent modulates enzymatic activity of an L-2-hydroxy acid oxidase” (Merck Sharp & Dohme Corp., priority 2005, dated 2010)", "assay_in_all_cases": "Km determination of hydroxy acid oxidase activity (DCIP-coupled)", "type_in_all_cases": "biochemical", "key": {"human Hao2": {"target": "T1, human Hao2 (Homo sapiens, UniProt Q9NYQ3)", "T1 construct": "made in house; host or cells: E. coli BL21-codonplus-RIPL", "T1 sequence (Q9NYQ3 1-351)": "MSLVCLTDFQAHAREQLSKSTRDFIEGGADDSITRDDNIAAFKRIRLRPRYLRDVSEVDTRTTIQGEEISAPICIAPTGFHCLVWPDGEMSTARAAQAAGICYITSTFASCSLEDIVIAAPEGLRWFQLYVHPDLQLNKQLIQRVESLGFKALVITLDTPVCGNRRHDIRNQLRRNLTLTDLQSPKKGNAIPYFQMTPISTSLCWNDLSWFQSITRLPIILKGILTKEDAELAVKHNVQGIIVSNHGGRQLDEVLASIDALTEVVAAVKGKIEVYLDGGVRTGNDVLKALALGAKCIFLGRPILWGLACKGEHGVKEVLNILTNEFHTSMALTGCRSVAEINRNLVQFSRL", "conditions": "human Hao2 enzyme activity against the substrate; FIG. 1A", "description": "(§1) The hydroxyl acid oxidase activity of the Hao enzymes was assayed for oxidation of the enzyme substrate 2-hydroxyoctanoate by monitoring the coupled reduction of 2,6-dichloroindophenol (DCIP) at 605 nm.\n(§2) In order to determine the Km of the enzyme for a given substrate, 20 μl/well of various concentrations of the substrate 2-hydroxyoctanoate were diluted in the assay buffer (100 mM Kpi, 1 mM EDTA and 0.1% BSA) and 175 μl/well of 50 μM 2-6-dichloroindophenol (DCIP) diluted in the same assay buffer was added to a 96-well plate. The reaction was started by the addition of 5 μl/well of the Hao enzyme, and the change in A605 at room temperature (18° C.) was measured over time. An extinction coefficient of […] for DCIP at 605 nm may be used for all calculations. One unit of activity may be defined as the reduction of 1 μmol of DCIP in 1 min (see Jones, J. M., et al., J. Biol. Chem. 275:12590-12597, 2000)."}, "mouse Hao3": {"target": "T2, mouse Hao3 (Mus musculus, UniProt Q9NYQ2, S203T)", "T2 construct": "made in house; host or cells: E. coli BL21-codonplus-RIPL", "T2 sequence (Q9NYQ2 1-353 S203T)": "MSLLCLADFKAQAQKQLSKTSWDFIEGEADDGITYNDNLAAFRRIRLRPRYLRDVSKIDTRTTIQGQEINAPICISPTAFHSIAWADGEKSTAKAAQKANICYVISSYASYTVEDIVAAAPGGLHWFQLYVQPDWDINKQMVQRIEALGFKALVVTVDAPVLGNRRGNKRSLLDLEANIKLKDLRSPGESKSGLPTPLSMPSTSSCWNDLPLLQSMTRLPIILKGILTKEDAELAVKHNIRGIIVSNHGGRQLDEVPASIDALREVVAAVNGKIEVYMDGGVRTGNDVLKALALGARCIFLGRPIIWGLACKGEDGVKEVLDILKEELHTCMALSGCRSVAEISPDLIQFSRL", "conditions": "mouse Hao3 enzyme activity against the substrate; FIG. 1C", "description": "as §1, §2"}, "rat Hao2": {"target": "T3, rat Hao2 (Rattus norvegicus, UniProt Q07523)", "T3 sequence (Q07523 1-353)": "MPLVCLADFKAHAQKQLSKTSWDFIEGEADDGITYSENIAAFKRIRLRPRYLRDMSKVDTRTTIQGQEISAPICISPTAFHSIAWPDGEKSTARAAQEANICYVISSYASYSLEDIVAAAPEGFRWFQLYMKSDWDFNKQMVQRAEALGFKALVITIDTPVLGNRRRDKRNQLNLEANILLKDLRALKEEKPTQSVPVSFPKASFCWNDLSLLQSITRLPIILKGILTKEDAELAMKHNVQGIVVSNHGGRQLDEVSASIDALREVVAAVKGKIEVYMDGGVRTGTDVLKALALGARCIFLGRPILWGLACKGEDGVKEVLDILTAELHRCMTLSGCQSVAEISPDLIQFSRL", "conditions": "rat Hao2 enzyme activity against the substrate; FIG. 1B", "description": "as §1, §2"}}}
{"smiles": "CCCCCCC(O)C(=O)O", "note": "(stereo not drawn) [2-hydroxyoctanoate]", "values": [{"measurement": "Km", "setting": "human Hao2", "result": 735, "unit": "µM"}, {"measurement": "Km", "setting": "mouse Hao3", "result": 76, "unit": "µM"}, {"measurement": "Km", "setting": "rat Hao2", "result": 43, "unit": "µM"}]}
